Test results taken from patent publication US12325697B2 (Nimbus Clio, Inc., priority 2021, dated 2025).

The molecules below were run against Recombinant human Cbl-b (aa 36-427) (Homo sapiens (Human), UniProt Q13191) (assay: Cbl-b Biochemical Assay (TR-FRET)). Details: read-out: TR-FRET hCbl-b IC50.
Sequence of Recombinant human Cbl-b (aa 36-427) (Q13191 36-427): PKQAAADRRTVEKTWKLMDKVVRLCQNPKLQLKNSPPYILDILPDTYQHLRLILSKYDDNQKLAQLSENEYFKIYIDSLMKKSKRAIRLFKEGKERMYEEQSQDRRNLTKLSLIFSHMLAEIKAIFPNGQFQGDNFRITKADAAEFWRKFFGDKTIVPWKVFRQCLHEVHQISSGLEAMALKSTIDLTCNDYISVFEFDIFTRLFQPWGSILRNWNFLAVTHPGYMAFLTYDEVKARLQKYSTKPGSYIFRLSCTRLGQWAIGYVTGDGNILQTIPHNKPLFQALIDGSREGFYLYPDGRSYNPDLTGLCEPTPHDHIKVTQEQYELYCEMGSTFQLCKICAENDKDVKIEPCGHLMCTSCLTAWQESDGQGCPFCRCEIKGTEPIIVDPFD
Method: Recombinant human Cbl-b (aa 36-427) was expressed in E. coli, purified and biotinylated in vitro. The protein was diluted to 12 nM in freshly prepared assay buffer consisting of 50 mM HEPES, pH 7.0, 100 mM NaCl, 5 mM MgCl2, 0.01% Triton-X 100, 0.01% BSA and 1 mM DTT. Recombinant human Src (aa 254-536)-[…]-Zap-70 (aa 281-297) fusion protein was expressed in E. coli and purified. Protein was diluted in assay buffer to 2-5 nM and supplemented with ATP to 1 mM. Fluorescein-BODIPY labeled UBE[…]([…])-Ub was prepared by conjugating ubiquitin (Ub) labeled at its N-terminus with Fluorescein-BODIPY maleimide (ThermoFisher Catalog no B10250) to E. coli expressed and purified UBE[…]([…]) [see Dou et al Nature Structural and Molecular Biology 8: 982-987, 2013]. Recombinant human UBE2D2([…]) was expressed in E. coli, purified and ubiquitinated and Bodipy labelled in vitro. Protein was diluted to 200 nM in assay buffer without MgCl2 (or Cisbio PPI buffer). Streptavidin-Terbium was added to 2 nM and EDTA to 10 mM, to provide a binding assay mix. Compounds were dissolved in DMSO and diluted to prepare a ten-point dilution series. 100 nl of each compound concentration was dispensed in duplicate in a 384 well black assay plate using acoustic dispensing. Wells for maximum signal controls received 100 nl of DMSO only and wells for minimum signal controls received 100 nl of a reference inhibitor compound at a final assay concentration of […] to produce 100% inhibition. 5 μl of diluted Cbl-b enzyme was added to all wells of the assay plate and incubated at RT for 30-60 min. The enzyme assay was initiated by addition of 5 μl of Src-Zap/ATP mix to all wells, and the plate incubated at RT for 60 min. The enzyme reaction was terminated and the binding reaction was initiated by adding 10 μl of binding assay mix to all wells and incubating the plate at RT for 60 min prior to assay read. Final assay conditions consisted of 6 nM Cbl-b, 1-2.5 nM Src-Zap70, 0.5 mM ATP, 1% (v/v) DMSO (enzyme reaction) and 100 nM UBE2D2([…])-Ub-FL-BODIPY, 5 mM EDTA, 1 nM Streptavidin-Tb (binding reaction). The HTRF assay signal was measured at 520 nm on an Envision plate reader, with reference signal at 485 or 620 nm. Data was normalized using maximum and minimum assay controls: % Inhibition=100-(100*((maximum control)-unknown)/(maximum control-minimum control)). A 4-parameter dose-response equation was used to fit the normalized dose-response data and derive an IC50 for test compounds.
In the case of `CCNc1cc(-c2ccccc2-c2nncn2C)cc(N2Cc3c(cc(CN4CCC[C@@H](C)C4)cc3C(F)(F)F)C2=O)n1` [AE-2, (R)-2-(6-(Ethylamino)-4-(2-(4-methyl-4H-1,2,4-triazol-3-yl)phenyl)pyridin-2-yl)-6-((3-methylpiperidin-1-yl)methyl)-4-(trifluoromethyl)isoindolin-1-one], the IC50 is reported as at most 200 nM. `Cn1cnnc1-c1cnn(C)c1-c1cc(CN)nc(N2Cc3c(cccc3C(F)(F)F)C2=O)c1` [ABG-3, 2-(6-(Aminomethyl)-4-(1-methyl-4-(4-methyl-4H-1,2,4-triazol-3-yl)-1H-pyrazol-5-yl)pyridin-2-yl)-4-(trifluoromethyl)isoindolin-1-one] was tested, and the IC50 was 10000 to 50000 nM. With `CCNc1cc(-c2c(-c3nncn3C)cnn2C)cc(NC(=O)c2cc(CN3CCC4(CC4)C3)cc(C3CC3)n2)n1` [ABF-8, 4-((5-Azaspiro [2.4]heptan-5-yl)methyl)-6-cyclopropyl-N-(6-(ethylamino)-4-(1-methyl-4-(4-methyl-4H-1,2,4-triazol-3-yl)-1H-pyrazol-5-yl)pyridin-2-yl)picolinamide] the IC50 was at most 200 nM. Molecule `CC(C)Nc1cc(-c2c(-c3nncn3C)cnn2C)cc(N2Cc3c(cccc3C(F)(F)F)C2=O)n1` [ABI-1, 2-(6-(Isopropylamino)-4-(1-methyl-4-(4-methyl-4H-1,2,4-triazol-3-yl)-1H-pyrazol-5-yl)pyridin-2-yl)-4-(trifluoromethyl)isoindolin-1-one] has an IC50 of at most 200 nM. In the case of `CCNc1cc(-c2ccccc2-c2nncn2C)cc(N2Cc3c(cc(CN[C@H]4CCC[C@H]4O)cc3C(F)(F)F)C2=O)n1` [AR-1, 2-(6-(Ethylamino)-4-(2-(4-methyl-4H-1,2,4-triazol-3-yl)phenyl)pyridin-2-yl)-6-((((1S,2R)-2-hydroxycyclopentyl)amino)methyl)-4-(trifluoromethyl)isoindolin-1-one], the IC50 is reported as at most 200 nM. Molecule `Cn1cnnc1-c1ccccc1-c1cccc(NC(=O)c2cc(OCCN3CCCC3)nc(C3CC3)n2)c1` [ABK-7, 2-Cyclopropyl-N-(2′-(4-methyl-4H-1,2,4-triazol-3-yl)-[1,1′-biphenyl]-3-yl)-6-(2-(pyrrolidin-1-yl)ethoxy)pyrimidine-4-carboxamide] has an IC50 of 200 to 1000 nM. Work on `C[C@@H]1CCCN(Cc2cc3c(c(C(F)(F)F)c2)CN(c2cccc(-c4ccccc4-c4nncn4C)c2)C3=O)C1` [Example S-2, (R)-2-(2′-(4-Methyl-4H-1,2,4-triazol-3-yl)-[1,1′-biphenyl]-3-yl)-6-((3-methylpiperidin-1-yl)methyl)-4-(trifluoromethyl)isoindolin-1-one] yielded an IC50 of 200 to 1000 nM. In the case of `CCNc1cc(-c2c(-c3nncn3C)cnn2C)cc(N2Cc3c(cc(CN)cc3C(F)(F)F)C2=O)n1` [ACG-3, 6-(Aminomethyl)-2-(6-(ethylamino)-4-(1-methyl-4-(4-methyl-4H-1,2,4-triazol-3-yl)-1H-pyrazol-5-yl)pyridin-2-yl)-4-(trifluoromethyl)isoindolin-1-one], the IC50 is reported as at most 200 nM. `Cn1cnnc1-c1ccccc1-c1cc(N2Cc3c(cccc3C(F)(F)F)C2=O)nc(C(F)(F)F)c1` [Example J-4, 2-(4-(2-(4-Methyl-4H-1,2,4-triazol-3-yl)phenyl)-6-(trifluoromethyl)pyridin-2-yl)-4-(trifluoromethyl)isoindolin-1-one] showed an IC50 of 10000 to 50000 nM. `CCNc1cc(-c2ccccc2-c2nncn2C)cc(N2Cc3c(cc(COC)cc3C(F)(F)F)C2=O)n1` [AS-2, 2-(6-(Ethylamino)-4-(2-(4-methyl-4H-1,2,4-triazol-3-yl)phenyl)pyridin-2-yl)-6-(methoxymethyl)-4-(trifluoromethyl)isoindolin-1-one] showed an IC50 of at most 200 nM. With `CCNc1cc(-c2c(-c3nncn3C)cnn2C)cc(C(=O)O)n1` [ABQ-1, 6-(Ethylamino)-4-(1-methyl-4-(4-methyl-4H-1,2,4-triazol-3-yl)-1H-pyrazol-5-yl)picolinic acid] the IC50 was 10000 to 50000 nM. For `Cn1cnnc1-c1ccccc1-c1cc(Cl)nc(N2Cc3c(cccc3C(F)(F)F)C2=O)c1` [AAT-1, 2-(6-Chloro-4-(2-(4-methyl-4H-1,2,4-triazol-3-yl)phenyl)pyridin-2-yl)-4-(trifluoromethyl)isoindolin-1-one], the IC50 was 200 to 1000 nM. For `COc1ccc([C@@H](C)Cc2nncn2C)cc1N1Cc2c(cc(CN3CCCC3)cc2C(F)(F)F)C1=O` [Example F-9, (S)-2-(2-Methoxy-5-(1-(4-methyl-4H-1,2,4-triazol-3-yl)propan-2-yl)phenyl)-6-(pyrrolidin-1-ylmethyl)-4-(trifluoromethyl)isoindolin-1-one], the IC50 was 1000 to 10000 nM. `CCNc1cc(-c2ccccc2-c2nncn2C)cc(N2Cc3c(cc(CN4CC(F)C4)cc3C(F)(F)F)C2=O)n1` [AG-1, 2-(6-(Ethylamino)-4-(2-(4-methyl-4H-1,2,4-triazol-3-yl)phenyl)pyridin-2-yl)-6-((3-fluoroazetidin-1-yl)methyl)-4-(trifluoromethyl)isoindolin-1-one] was tested, and the IC50 was at most 200 nM. `Cn1cnnc1-c1cnn(C)c1-c1cc(Cl)nc(N2Cc3c(cccc3C(F)(F)F)C2=O)c1` [AAN-7, 2-(6-Chloro-4-(1-methyl-4-(4-methyl-4H-1,2,4-triazol-3-yl)-1H-pyrazol-5-yl)pyridin-2-yl)-4-(trifluoromethyl)isoindolin-1-one] gave an IC50 of 1000 to 10000 nM. `Cn1cnnc1-c1cc(C(N)=O)ccc1-c1cccc(N2Cc3c(cccc3C(F)(F)F)C2=O)c1` [ACD-1, 2-(4-Methyl-4H-1,2,4-triazol-3-yl)-3′-(1-oxo-4-(trifluoromethyl)isoindolin-2-yl)-[1,1′-biphenyl]-4-carboxamide] was tested, and the IC50 was 1000 to 10000 nM. `Cn1cnnc1-c1cnn(C)c1-c1cc(O)nc(N2Cc3c(cc(CN4CCC5(CC5)C4)cc3C(F)(F)F)C2=O)c1` [ABE-1, 6-((5-Azaspiro [2.4]heptan-5-yl)methyl)-2-(6-hydroxy-4-(1-methyl-4-(4-methyl-4H-1,2,4-triazol-3-yl)-1H-pyrazol-5-yl)pyridin-2-yl)-4-(trifluoromethyl)isoindolin-1-one] gave an IC50 of 1000 to 10000 nM. Molecule `CCNc1cc(-c2ccccc2-c2nncn2C)cc(N2Cc3c(cc(CN4CCC[C@H](C)C4)cc3C(F)(F)F)C2=O)n1` [AF-1, (S)-2-(6-(Ethylamino)-4-(2-(4-methyl-4H-1,2,4-triazol-3-yl)phenyl)pyridine-2-yl)6-((3-methylpiperidin-1-yl)methyl)-4-(trifluoromethyl)isoindolin-1-one] has an IC50 of at most 200 nM. `CCNc1cc(-c2c(-c3nncn3C)cnn2C)cc(NC(=O)c2cc(=O)n(CCN3CCCC3)c(C3CC3)n2)n1` [ABL-4, 2-Cyclopropyl-N-(6-(ethylamino)-4-(1-methyl-4-(4-methyl-4H-1,2,4-triazol-3-yl)-1H-pyrazol-5-yl)pyridin-2-yl)-6-oxo-1-(2-(pyrrolidin-1-yl)ethyl)-1,6-dihydropyrimidine-4-carboxamide] gave an IC50 of 10000 to 50000 nM. `CCn1cc(-c2nncn2C)c(-c2cccc(N3Cc4c(cccc4C(F)(F)F)C3=O)c2)n1` [AAF-9, 2-[3-[1-Ethyl-4-(4-methyl-1,2,4-triazol-3-yl)pyrazol-3-yl]phenyl]-4-(trifluoromethyl)-3H-isoindol-1-one] gave an IC50 of 10000 to 50000 nM. `CCNc1cc(-c2c(-c3nncn3C)cnn2C)cc(N2Cc3c(cc(O)cc3C(F)(F)F)C2=O)n1` [ACQ-7, 2-(6-(Ethylamino)-4-(1-methyl-4-(4-methyl-4H-1,2,4-triazol-3-yl)-1H-pyrazol-5-yl)pyridin-2-yl)-6-hydroxy-4-(trifluoromethyl)isoindolin-1-one] was tested, and the IC50 was at most 200 nM. `CCNc1cc(-c2c(-c3nncn3C)cnn2C)cc(N2Cc3c(cccc3C(F)(F)F)C2=O)n1` [ACO-1, 2-(6-(Ethylamino)-4-(1-methyl-4-(4-methyl-4H-1,2,4-triazol-3-yl)-1H-pyrazol-5-yl)pyridin-2-yl)-4-(trifluoromethyl)isoindolin-1-one] was tested, and the IC50 was at most 200 nM. With `CCNc1cc(-c2c(-c3nncn3C)cnn2C)cc(CNC(=O)OC(C)(C)C)n1` [ABV-1, tert-Butyl ((6-(ethylamino)-4-(1-methyl-4-(4-methyl-4H-1,2,4-triazol-3-yl)-1H-pyrazol-5-yl)pyridin-2-yl)methyl)carba mate] the IC50 was 10000 to 50000 nM. For `CCNc1cc(-c2c(-c3nncn3C)cnn2C)cc(NC(=O)c2cc(C)nc(C3CC3)n2)n1` [ABJ-4, 2-Cyclopropyl-N-(6-(ethylamino)-4-(1-methyl-4-(4-methyl-4H-1,2,4-triazol-3-yl)-1H-pyrazol-5-yl)pyridin-2-yl)-6-methylpyrimidine-4-carboxamide], the IC50 was 200 to 1000 nM.
